Source: patent publication US20260125382A1, “COMPOUNDS FOR INHIBITING OR DEGRADING CDK2 AND/OR CDK9 AND MEDICINAL USE THEREOF” (KOREA RESEARCH INSTITUTE OF CHEMICAL TECHNOLOGY, priority 2022, published 2026)

Key:
[1] = molecular target: T1, CDK2 (Homo sapiens, UniProt P24941); assay: CDK protein degradation activity (Western blotting), CDK2; format: cell-based; details: MDA-MB-231 cells, 16 hours, Western blot
T1 construct: endogenous in cells; host or cells: MDA-MB-231
In short: (§1)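 MDA-MB-231 cells treated 16 h with compound at 100 nM, 1 μM or 10 μM, with DMSO as control. Lysates run on SDS-PAGE and immunoblotted for CDK2, CDK9 and tubulin; band levels quantified by densitometry.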

[2] = molecular target: T2, CDK9 (Homo sapiens, UniProt P50750); assay: CDK protein degradation activity (Western blotting), CDK9; format: cell-based; details: MDA-MB-231 cells, 16 hours, Western blot
T2 construct: endogenous in cells; host or cells: MDA-MB-231
T2 sequence (P50750 whole entry): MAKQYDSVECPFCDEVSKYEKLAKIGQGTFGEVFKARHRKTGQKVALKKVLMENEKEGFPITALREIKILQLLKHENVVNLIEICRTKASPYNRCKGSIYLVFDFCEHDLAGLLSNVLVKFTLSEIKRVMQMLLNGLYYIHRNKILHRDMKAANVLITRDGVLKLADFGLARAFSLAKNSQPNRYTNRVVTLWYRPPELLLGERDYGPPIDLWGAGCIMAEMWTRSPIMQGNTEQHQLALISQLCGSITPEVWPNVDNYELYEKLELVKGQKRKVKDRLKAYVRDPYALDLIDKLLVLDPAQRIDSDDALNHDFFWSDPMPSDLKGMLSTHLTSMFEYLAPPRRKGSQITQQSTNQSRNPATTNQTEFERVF
In short: as §1

| Structure (SMILES) | Enzyme degradation CDK2 (% remaining) @ 0.1 μM [1] | Enzyme degradation CDK2 (% remaining) @ 1 μM [1] | Enzyme degradation CDK2 (% remaining) @ 10 μM [1] | Enzyme degradation CDK9 (% remaining) @ 0.1 μM [2] | Enzyme degradation CDK9 (% remaining) @ 1 μM [2] | Enzyme degradation CDK9 (% remaining) @ 10 μM [2] |
| --- | --- | --- | --- | --- | --- | --- |
| Cc1cccc(C(=O)N[C@H]2C[C@@H](n3cnc4c(NC5CCN(CCOC6CCN(C(=O)CNc7ccc8c(c7)C(=O)N(C7CCC(=O)NC7=O)C8=O)CC6)CC5)ncnc43)C2)n1 (stereo partly drawn) [Compound 45, N-((1s,3s)-3-(6-((1-(2-((1-((2-(2,6-dioxopiperidin-3-yl)-1,3-dioxoisoindolin-5-yl)glycyl)piperidin-4-yl)oxy)ethyl)piperidin-4-yl)amino)-9H-purin-9-yl)cyclobutyl)-6-methylpicolinamide] | 80% | 60% | 90% | 0/0/0% | 0/0/0% | 0/0/0% |
| Cc1cccc(C(=O)N[C@H]2C[C@@H](n3cnc4c(NC5CCN(CCC6CCN(C(=O)COc7ccc8c(c7)C(=O)N(C7CCC(=O)NC7=O)C8=O)CC6)CC5)ncnc43)C2)n1 (stereo partly drawn) [Compound 31, N-((1s,3s)-3-(6-((1-(2-(1-(2-((2-(2,6-dioxopiperidin-3-yl)-1,3-dioxoisoindolin-5-yl)oxy)acetyl)piperidin-4-yl)ethyl)piperidin-4-yl)amino)-9H-purin-9-yl)cyclobutyl)-6-methylpicolinamide] | 70% | 40% | 30% | 10% | 0% | 0% |
| O=C1CC[C@@H](c2cccc(OCC(=O)N3CC(CN4CCC5(CC4)CC(N4CCN(c6ccc(Nc7ncnc8c7ncn8[C@H]7C[C@@H](NC(=O)Cc8ccccc8)C7)cc6)CC4)C5)C3)c2)C(=O)N1 [Compound 276, N-((1s,3s)-3-(6-((4-(4-(7-((1-(2-(3-(2,6-dioxopiperidin-3-yl)phenoxy)acetyl)azetidin-3-yl)methyl)-7-azaspiro[3.5]nonan-2-yl)piperazin-1-yl)phenyl)amino)-9H-purin-9-yl)cyclobutyl)-2-phenylacetamide] | 30% | 20% | 20% | 10% | 0% | 0% |
| O=C1CC[C@H](N2C(=O)c3ccc(N4CCC(C(=O)N5CCC(CCN6CCN(c7ccc(Nc8ncnc9c8ncn9C8CC(NC(=O)c9c(Cl)cccc9Cl)C8)cc7)CC6)CC5)CC4)cc3C2=O)C(=O)N1 (stereo partly drawn) [Compound 413, 2,6-dichloro-N-((1s,3s)-3-(6-((4-(4-(2-(1-(1-(2-(2,6-dioxopiperidin-3-yl)-1,3-dioxoisoindolin-5-yl)piperidin-4-carbonyl)piperidin-4-yl)ethyl)piperazin-1-yl)phenyl)amino)-9H-purin-9-yl)cyclobutyl)benzamide] | 30% | 20% | 20% | 10/10/10% | 10/10/10% | 10/10/10% |
| O=C1CC[C@H](N2C(=O)c3ccc(NCC(=O)N4CCC(CCCN5CCN(c6ccc(Nc7ncnc8c7ncn8[C@H]7C[C@@H](NC(=O)Cc8ccccc8)C7)cc6)CC5)CC4)cc3C2=O)C(=O)N1 (racemic) [Compound 255, N-((1s,3s)-3-(6-((4-(4-(3-(1-((2-(2,6-dioxopiperidin-3-yl)-1,3-dioxoisoindolin-5-yl)glycyl)piperidin-4-yl)propyl)piperazin-1-yl)phenyl)amino)-9H-purin-9-yl)cyclobutyl)-2-phenylacetamide] | 30/30/30% | 30/30/30% | 30/30/30% | 0/0/0% | 0/0/0% | 0/0/0% |
| O=C1CC[C@H](N2C(=O)c3ccc(N4CCC(C(=O)N5CCC(CN6CCN(c7ccc(Nc8ncnc9c8ncn9C8CC(NC(=O)c9cccc(F)n9)C8)cc7)CC6)CC5)CC4)cc3C2=O)C(=O)N1 (stereo partly drawn) [Compound 467, N-((1s,3s)-3-(6-((4-(4-((1-(1-(2-(2,6-dioxopiperidin-3-yl)-1,3-dioxoisoindolin-5-yl)piperidin-4-carbonyl)piperidin-4-yl)methyl)piperazin-1-yl)phenyl)amino)-9H-purin-9-yl)cyclobutyl)-6-fluoropicolinamide] | 40% | 30% | 30% | 0/0/0% | 0/0/0% | 0/0/0% |
| O=C1CCC(N2C(=O)c3cccc(CCCCN4CCC(CN5CCN(c6ccc(Nc7ncnc8c7ncn8[C@H]7C[C@@H](NC(=O)c8cccc(F)n8)C7)cc6)CC5)CC4)c3C2=O)C(=O)N1 (stereo partly drawn) [Compound 432, N-((1s,3s)-3-(6-((4-(4-((1-(4-(2-(2,6-dioxopiperidin-3-yl)-1,3-dioxoisoindolin-4-yl)butyl)piperidin-4-yl)methyl)piperazin-1-yl)phenyl)amino)-9H-purin-9-yl)cyclobutyl)-6-fluoropicolinamide] | 50% | 40% | 40% | 0/0/0% | 0/0/0% | 0/0/0% |
| O=C1CC[C@H](N2C(=O)c3ccc(OCC(=O)N4CCC(CN5CCN(c6ccc(Nc7ncnc8c7ncn8[C@H]7C[C@@H](NC(=O)c8c(Cl)cccc8Cl)C7)cc6)CC5)CC4)cc3C2=O)C(=O)N1 [Compound 162, 2,6-dichloro-N-((1s,3s)-3-(6-((4-(4-((1-(2-((2-(2,6-dioxopiperidin-3-yl)-1,3-dioxoisoindolin-5-yl)oxy)acetyl)piperidin-4-yl)methyl)piperazin-1-yl)phenyl)amino)-9H-purin-9-yl)cyclobutyl)benzamide] | 50/50/50% | 50/50/50% | 50/50/50% | 0/0/0% | 0/0/0% | 0/0/0% |
| O=C1CC[C@H](N2C(=O)c3ccc(N4CC(C(=O)N5CCN(CC6CCN(c7ccc(Nc8ncnc9c8ncn9C8CC(NC(=O)Cc9ccccc9)C8)cc7)CC6)CC5)C4)cc3C2=O)C(=O)N1 (stereo partly drawn) [Compound 331, N-((1s,3s)-3-(6-((4-(4-((4-(1-(2-(2,6-dioxopiperidin-3-yl)-1,3-dioxoisoindolin-5-yl)azetidin-3-carbonyl)piperazin-1-yl)methyl)piperidin-1-yl)phenyl)amino)-9H-purin-9-yl)cyclobutyl)-2-phenylacetamide] | 50% | 30% | 30% | 30% | 10% | 0% |
| O=C1CC[C@H](N2C(=O)c3ccc(N4CC(C(=O)N5CCC(CCN6CCN(c7ccc(Nc8ncnc9c8ncn9C8CC(NC(=O)c9c(Cl)cccc9Cl)C8)cc7)CC6)CC5)C4)cc3C2=O)C(=O)N1 (stereo partly drawn) [Compound 412, 2,6-dichloro-N-((1s,3s)-3-(6-((4-(4-(2-(1-(1-(2-(2,6-dioxopiperidin-3-yl)-1,3-dioxoisoindolin-5-yl)azetidin-3-carbonyl)piperidin-4-yl)ethyl)piperazin-1-yl)phenyl)amino)-9H-purin-9-yl)cyclobutyl)benzamide] | 30/30/30% | 30/30/30% | 30/30/30% | 10/10/10% | 10/10/10% | 10/10/10% |
| Cc1cccc(C(=O)N[C@H]2C[C@@H](n3cnc4c(NCc5ccc(OCC6CCN(C(=O)CNc7ccc8c(c7)C(=O)N([C@H]7CCC(=O)NC7=O)C8=O)CC6)cc5)ncnc43)C2)n1 [Compound 108, N-((1s,3s)-3-(6-((4-((1-((2-(2,6-dioxopiperidin-3-yl)-1,3-dioxoisoindolin-5-yl)glycyl)piperidin-4-yl)methoxy)benzyl)amino)-9H-purin-9-yl)cyclobutyl)-6-methylpicolinamide] | 30% | 30% | 60% | 0/0/0% | 0/0/0% | 0/0/0% |
| O=C1CC[C@H](N2C(=O)c3ccc(N4CCC5(CC4)CC(N4CCC(c6ccc(Nc7ncnc8c7ncn8[C@H]7C[C@@H](NC(=O)Cc8ccccc8)C7)cc6)CC4)C5)cc3C2=O)C(=O)N1 [Compound 298, N-((1s,3s)-3-(6-((4-(1-(7-(2-(2,6-dioxopiperidin-3-yl)-1,3-dioxoisoindolin-5-yl)-7-azaspiro[3.5]nonan-2-yl)piperidin-4-yl)phenyl)amino)-9H-purin-9-yl)cyclobutyl)-2-phenylacetamide] | 10/10/10% | 10/10/10% | 10/10/10% | 10% | 0% | 0% |
